Laboratory results reported in patent US20190284136A1, “INDOLINE DERIVATIVES” (ViiV HEALTHCARE UK LIMITED, priority 2016, published 2019).

System: HIV
Test: Table 1 IC50 of the examples (assay method not given; patent concerns inhibiting HIV replication)
Type: cell-based
Settings: Human immunodeficiency virus 1

Compound	IC50
COc1cc(F)ccc1C(=O)N1CCc2c1cc(C)c([C@H](OC(C)(C)C)C(=O)O)c2-c1ccc(C)cc1 [Example 21, (S)-2-(tert-Butoxy)-2-(1-(4-fluoro-2-methoxybenzoyl)-6-methyl-4-(p-tolyl)indolin-5-yl)acetic acid]	9 nM
COc1cc(C(=O)N2CCc3c2cc(C)c([C@H](OC(C)(C)C)C(=O)O)c3-c2cc(F)c3c(c2C)CCCO3)ccc1C [Example 71, (S)-2-(tert-Butoxy)-2-((R)-4-(8-fluoro-5-methylchroman-6-yl)-1-(3-methoxy-4-methylbenzoyl)-6-methylindolin-5-yl)acetic acid]	4 nM
Cc1cc2c(c(-c3cc(F)c4c(c3C)CCCO4)c1[C@H](OC(C)(C)C)C(=O)O)CCN2C(=O)c1c(F)cccc1F (atropisomer, axis not shown) [Example 111, (S)-2-(tert-Butoxy)-2-((R)-1-(2,6-difluorobenzoyl)-4-(8-fluoro-5-methylchroman-6-yl)-6-methylindolin-5-yl)acetic acid]	43 nM
COc1cc(C(=O)N2CCc3c2cc(C)c([C@H](OC(C)(C)C)C(=O)O)c3-c2ccc(C)cc2)cc(F)c1F [Example 12, (S)-2-(tert-Butoxy)-2-(1-(3,4-difluoro-5-methoxybenzoyl)-6-methyl-4-(p-tolyl)indolin-5-yl)acetic acid]	4 nM
COc1cc(F)cc(C(=O)N2CCc3c2cc(C)c([C@H](OC(C)(C)C)C(=O)O)c3-c2cc(F)c3c(c2C)CCCO3)c1 [Example 158, (S)-2-(tert-Butoxy)-2-((R)-1-(3-fluoro-5-methoxybenzoyl)-4-(8-fluoro-5-methylchroman-6-yl)-6-methylindolin-5-yl) acetic acid]	3 nM
COc1cc(C(=O)N2CCc3c2cc(C)c([C@H](OC(C)(C)C)C(=O)O)c3-c2cc(F)c3c(c2C)CCCO3)ccc1F (atropisomer, axis not shown) [Example 142, (S)-2-(tert-Butoxy)-2-((R)-1-(4-fluoro-3-methoxybenzoyl)-4-(8-fluoro-5-methylchroman-6-yl)-6-methylindolin-5-yl)acetic acid]	2 nM
Cc1nc2cccc(C(=O)N3CCc4c3cc(C)c([C@H](OC(C)(C)C)C(=O)O)c4-c3cc(F)c4c(c3C)CCCO4)c2o1 (atropisomer, axis not shown) [Example 179, (S)-2-(tert-Butoxy)-2-((R)-4-(8-Fluoro-5-methylchroman-6-yl)-6-methyl-1-(2-methylbenzo[d]oxazole-7-carbonyl)indolin-5-yl)acetic acid]	12 nM
Cc1cc2c(c(-c3cc(F)c4c(c3C)CCCO4)c1[C@H](OC(C)(C)C)C(=O)O)CCN2C(=O)c1cccc2c1CCCC2 (atropisomer, axis not shown) [Example 59, (S)-2-(tert-Butoxy)-2-((R)-4-(8-fluoro-5-methylchroman-6-yl)-6-methyl-1-(5,6,7,8-tetrahydronaphthalene-1-carbonyl)indolin-5-yl)acetic acid]	6 nM
COc1cccc(C(=O)N2CCc3c2cc(C)c([C@H](OC(C)(C)C)C(=O)O)c3-c2cc(F)c3c(c2C)CCCO3)c1C (atropisomer, axis not shown) [Example 67, (S)-2-(tert-Butoxy)-2-((R)-4-(8-fluoro-5-methylchroman-6-yl)-1-(3-methoxy-2-methylbenzoyl)-6-methylindolin-5-yl)acetic acid]	5 nM
COc1ccc(F)cc1C(=O)N1CCc2c1cc(C)c([C@H](OC(C)(C)C)C(=O)O)c2-c1cc(F)c2c(c1C)CCCO2 (atropisomer, axis not shown) [Example 101, (S)-2-(tert-Butoxy)-2-((R)-1-(5-fluoro-2-methoxybenzoyl)-4-(8-fluoro-5-methylchroman-6-yl)-6-methylindolin-5-yl)acetic acid]	5 nM
Cc1cc2c(c(-c3cc(F)c4c(c3C)CCCO4)c1[C@H](OC(C)(C)C)C(=O)O)CCN2C(=O)c1cc(C(F)(F)F)ccc1Cl (atropisomer, axis not shown) [Example 154, (S)-2-(tert-Butoxy)-2-((R)-1-(2-chloro-5-(trifluoromethyl)benzoyl)-4-(8-fluoro-5-methylchroman-6-yl)-6-methylindolin-5-yl)acetic acid]	52 nM
COc1cc(Cl)ccc1C(=O)N1CCc2c1cc(C)c([C@H](OC(C)(C)C)C(=O)O)c2-c1ccc2c(c1C)CCCO2 (atropisomer, axis not shown) [Example 183, (S)-2-(tert-Butoxy)-2-((R)-1-(4-chloro-2-methoxybenzoyl)-6-methyl-4-(5-methylchroman-6-yl)indolin-5-yl)acetic acid]	4 nM
COc1cc(C(=O)N2CCc3c2cc(C)c([C@H](OC(C)(C)C)C(=O)O)c3-c2ccc3c(c2C)CCCO3)ccc1C (atropisomer, axis not shown) [Example 184, (S)-2-(tert-Butoxy)-2-((R)-1-(3-methoxy-4-methylbenzoyl)-6-methyl-4-(5-methylchroman-6-yl)indolin-5-yl)acetic acid]	4 nM
COc1ccc(C(=O)N2CCc3c2cc(C)c([C@H](OC(C)(C)C)C(=O)O)c3-c2ccc(C)cc2)c(C)c1 [Example 10, (S)-2-(tert-Butoxy)-2-(1-(4-methoxy-2-methylbenzoyl)-6-methyl-4-(p-tolyl)indolin-5-yl)acetic acid]	12 nM
COc1ccc(C(=O)N2c3cc(C)c([C@H](OC(C)(C)C)C(=O)O)c(-c4cc(F)c5c(c4C)CCCO5)c3CC2(C)C)cc1C (atropisomer, axis not shown) [Example 206, (S)-2-(tert-Butoxy)-2-((R)-4-(8-fluoro-5-methylchroman-6-yl)-1-(4-methoxy-3-methylbenzoyl)-2,2,6-trimethylindolin-5-yl)acetic acid]	13 nM
Cc1cc2c(c(-c3cc(F)c4c(c3C)CCCO4)c1[C@H](OC(C)(C)C)C(=O)O)CCN2C(=O)c1ccncc1F (atropisomer, axis not shown) [Example 91, (S)-2-(tert-Butoxy)-2-((R)-4-(8-fluoro-5-methylchroman-6-yl)-1-(3-fluoroisonicotinoyl)-6-methylindolin-5-yl)acetic acid]	156 nM
Cc1cc(C)cc(C(=O)N2CCc3c2cc(C)c([C@H](OC(C)(C)C)C(=O)O)c3-c2cc(F)c3c(c2C)CCCO3)c1 (atropisomer, axis not shown) [Example 77, (S)-2-(tert-Butoxy)-2-((R)-1-(3,5-dimethylbenzoyl)-4-(8-fluoro-5-methylchroman-6-yl)-6-methylindolin-5-yl)acetic acid]	5 nM
COc1c(C(=O)N2CCc3c2cc(C)c([C@H](OC(C)(C)C)C(=O)O)c3-c2cc(F)c3c(c2C)CCCO3)ccc(F)c1F (atropisomer, axis not shown) [Example 113, (S)-2-(tert-Butoxy)-2-((R)-1-(3,4-difluoro-2-methoxybenzoyl)-4-(8-fluoro-5-methylchroman-6-yl)-6-methylindolin-5-yl)acetic acid]	2 nM
Cc1cc2c(c(-c3cc(F)c4c(c3C)CCCO4)c1[C@H](OC(C)(C)C)C(=O)O)CCN2C(=O)c1cccc(F)c1Cl (atropisomer, axis not shown) [Example 49, (S)-2-(tert-Butoxy)-2-((R)-1-(2-chloro-3-fluorobenzoyl)-4-(8-fluoro-5-methylchroman-6-yl)-6-methylindolin-5-yl)acetic acid]	2 nM
COc1cc(C(=O)N2CCc3c2cc(C)c([C@H](OC(C)(C)C)C(=O)O)c3-c2cc(F)c3c(c2C)CCCO3)cc(F)c1F (atropisomer, axis not shown) [Example 174, (S)-2-(tert-Butoxy)-2-((R)-1-(3,4-Difluoro-5-methoxybenzoyl)-4-(8-fluoro-5-methylchroman-6-yl)-6-methylindolin-5-yl)acetic acid]	6 nM
Cc1ccc(-c2c3c(cc(C)c2[C@H](OC(C)(C)C)C(=O)O)N(C(=O)c2nc(C)sc2C)CC3)cc1 [Example 26, (S)-2-(tert-Butoxy)-2-(1-(2,5-dimethylthiazole-4-carbonyl)-6-methyl-4-(p-tolyl)indolin-5-yl)acetic acid]	123 nM
CC(=O)Nc1ccc(C(=O)N2CCc3c2cc(C)c([C@H](OC(C)(C)C)C(=O)O)c3-c2cc(F)c3c(c2C)CCCO3)cc1 (atropisomer, axis not shown) [Example 104, (S)-2-((R)-1-(4-Acetamidobenzoyl)-4-(8-fluoro-5-methylchroman-6-yl)-6-methylindolin-5-yl)-2-(tert-butoxy)acetic acid]	323 nM
Cc1cc2c(c(-c3cc(F)c4c(c3C)CCCO4)c1[C@H](OC(C)(C)C)C(=O)O)CCN2C(=O)c1ccc(C(F)(F)F)c(F)c1 (atropisomer, axis not shown) [Example 140, (S)-2-(tert-Butoxy)-2-((R)-1-(3-fluoro-4-(trifluoromethyl)benzoyl)-4-(8-fluoro-5-methylchroman-6-yl)-6-methylindolin-5-yl)acetic acid]	14 nM
Cc1cc(F)ccc1C(=O)N1CCc2c1cc(C)c([C@H](OC(C)(C)C)C(=O)O)c2-c1cc(F)c2c(c1C)CCCO2 (atropisomer, axis not shown) [Example 62, (S)-2-(tert-Butoxy)-2-((R)-1-(4-fluoro-2-methylbenzoyl)-4-(8-fluoro-5-methylchroman-6-yl)-6-methylindolin-5-yl)acetic acid]	6 nM
Cc1ccc(-c2c3c(cc(C)c2[C@H](OC(C)(C)C)C(=O)O)N(C(=O)c2ccc(C)c(F)c2)CC3)cc1 [Example 31, (S)-2-(tert-Butoxy)-2-(1-(3-fluoro-4-methylbenzov)-6-methyl-4-(p-tolyl)indolin-5-yl)acetic acid]	12 nM
Cc1cc2c(c(-c3cc(F)c4c(c3C)CCCO4)c1[C@H](OC(C)(C)C)C(=O)O)CCN2C(=O)C1CCOCC1 (atropisomer, axis not shown) [Example 65, (S)-2-(tert-Butoxy)-2-((R)-4-(8-fluoro-5-methylchroman-6-yl)-6-methyl-1-(tetrahydro-2H-pyran-4-carbonyl)indolin-5-yl)acetic acid]	378 nM
COc1cnccc1C(=O)N1CCc2c1cc(C)c([C@H](OC(C)(C)C)C(=O)O)c2-c1cc(F)c2c(c1C)CCCO2 (atropisomer, axis not shown) [Example 171, (S)-2-(tert-Butoxy)-2-((R)-4-(8-fluoro-5-methylchroman-6-yl)-1-(3-methoxyisonicotinoyl)-6-methylindolin-5-yl)acetic acid]	14 nM
